Read-outs that look alike come from different tables or passages of the source.
Tests used:
Format in all cases: cell-based, human
MCF-12A cells = assay: iCELLigence real-time cell analysis; conditions: for IC50: Homo sapiens, MCF-12A
Description: (§1) Therefore, compound 6j was applied in serial doses (2, 5, 10, 20, 50, and 100 μM) to MCF-7 cells and parallel to MCF-12A cells to determine the selectivity and safety. The treatments were performed 24 h after seeding the cells on system-specific biosensor-based plates. A total of 120 h of analyses were monitored, with cell viability measurements taken every 15 min. […] In addition, the viability percentage values for each dose in these periods were calculated and are summarized in Table 3 for MCF-7 and Table 4 for MCF-12A. […] In these treatments, cells were not killed dramatically after adding the highest two doses of 6j (100 and 50 μM); instead, they entered the stationary phase.
(§2) MCF-7 (Cat. no. HTB-22) (human estrogen receptor-positive breast cancer) and MCF-12A (Cat. no. CRL-10782) (human non-tumorigenic mammary epithelial) cell lines were obtained from the American Type Culture Collection (ATCC, Rockville, Maryland, USA). MCF-7 cells were maintained in Dulbecco’s modified Eagle’s medium (DMEM) (Biological Industries, Haemek, Israel) supplemented with 10% heat-inactivated fetal bovine serum (FBS) (Biowest, Nuaillé, France), 2 mM L-glutamine (Biological Industries, Haemek, Israel), 100 U/mL penicillin and 100 μg/mL streptomycin (Gibco, Waltham, MA, USA), and 2.5 μg/mL plasmocin (Invivogen, Toulouse, France) at 37 °C in a 5% CO2 humidified incubator. MCF-12A cells were cultured in a DMEM/F-12 Nutrient Mixture (Ham) (DMEM/F12 1:1 with HEPES and L-glutamine) (Gibco, Waltham, MA, USA) with 10% heat-inactivated FBS, 100 U/mL penicillin, 100 μg/mL streptomycin, and 10 μg/mL insulin (Humulin R, Lilly, Indianapolis, USA), 20 ng/mL epidermal growth factor (Abcam, Cambridge, UK), […] hydrocortisone (Dekort, Deva Ilac, Istanbul, Turkey), and 2.5 μg/mL plasmocin in a humidified atmosphere of 5% CO2 at 37 °C. The cells were routinely cultured in cell culture flasks and checked regularly under an inverted microscope. Cells reaching 80% confluency were passaged by treatment with 0.25% trypsin–EDTA. Total cell numbers were counted by the trypan blue dye exclusion method using a hemocytometer prior to the experiments.
(§3) The iCELLigence real-time cell analysis system was used to conduct a real-time and label-free examination of the activities of compound 6j on cells as we previously described.[62] In brief, following a background measurement with 200 μL of complete medium on iCELLigence E-plate L8, 100 μL of MCF-7 or MCF-12A cells was seeded at a density of 5.0 × 10^3 per well. During the 120 h monitoring, the system took impedance measurements via biosensors every 15 min. At the 24th h of incubation, the cells were treated with increasing concentrations of the 6j compound (2, 5, 10, 20, 50, and 100 μM) in duplicate. For cell culture experiments, compound 6j was dissolved in DMSO (Sigma, St. Louis, USA) at a stock concentration of 20 mM. For treatments, dilutions were prepared from 20 mM stock with a cell growth medium, with a final DMSO concentration of 0.1%. The medium containing 0.1% DMSO was also used as a negative control. […] Data were recorded by the iCELLigence software for 120 h and analyzed at the end of the study.

[1] = iCELLigence real-time cell analysis; conditions: human, MCF-12A, relative to control, read-out: cell viability (% ± SEM)
Description: as §1, §2, §3

MCF-7 cells = assay: iCELLigence real-time cell analysis; conditions: for viability at 2 µM / viability at 5 µM / viability at 10 µM / viability at 20 µM / viability at 50 µM / viability at 100 µM / IC50: MCF-7; for viability at 2 µM / viability at 5 µM / viability at 10 µM / viability at 20 µM / viability at 50 µM / viability at 100 µM: relative to control, read-out: cell viability (% ± SEM)
Description: as §1, §2, §3

SMILES: COc1cc(C=C2C(=O)Nc3ccc(Cl)cc32)ccc1OCc1ccccn1 (mixture of isomers) [6j]
- IC50 (MCF-12A cells; 24 h after treatment): 506 µM
- IC50 (MCF-12A cells; 48 h after treatment): 81.9 µM
- IC50 (MCF-12A cells; 72 h after treatment): 312 µM
- IC50 (MCF-12A cells; 96 h after treatment): 207 µM
- safer profile MCF-12A versus MCF-7 (MCF-12A cells; at the 48th h, based on IC50 values): 5 times
- effects on MCF-12A healthy breast cells (MCF-12A cells; first 24 h of treatment, any dose (2-100 μM)): no effects
- viability at 48 h, 2 µM ([1]; MCF-12A cells (non-tumorigenic mammary epithelial), 2 μM, 48 h): 97.43 ± 0.02%
- viability at 72 h, 2 µM ([1]; MCF-12A cells (non-tumorigenic mammary epithelial), 2 μM, 72 h): 97.43 ± 0.02%
- viability at 96 h, 2 µM ([1]; MCF-12A cells (non-tumorigenic mammary epithelial), 2 μM, 96 h): 97.43 ± 0.02%
- viability at 72 h, 5 µM ([1]; MCF-12A cells (non-tumorigenic mammary epithelial), 5 μM, 72 h): 92.74 ± 0.01%
- viability at 96 h, 5 µM ([1]; MCF-12A cells (non-tumorigenic mammary epithelial), 5 μM, 96 h): 92.2%
- viability at 72 h, 10 µM ([1]; MCF-12A cells (non-tumorigenic mammary epithelial), 10 μM, 72 h): 87.93 ± 0.02%
- viability at 96 h, 10 µM ([1]; MCF-12A cells (non-tumorigenic mammary epithelial), 10 μM, 96 h): 87.93 ± 0.02%
- viability at 72 h, 20 µM ([1]; MCF-12A cells (non-tumorigenic mammary epithelial), 20 μM, 72 h): 80.57 ± 0.01%
- viability at 96 h, 20 µM ([1]; MCF-12A cells (non-tumorigenic mammary epithelial), 20 μM, 96 h): 80.57 ± 0.01%
- viability at 72 h, 50 µM ([1]; MCF-12A cells (non-tumorigenic mammary epithelial), 50 μM, 72 h): 72.7 ± 0.01%
- viability at 96 h, 50 µM ([1]; MCF-12A cells (non-tumorigenic mammary epithelial), 50 μM, 96 h): 72.54 ± 0.01%
- viability at 72 h, 100 µM ([1]; MCF-12A cells (non-tumorigenic mammary epithelial), 100 μM, 72 h): 62.63 ± 0.01%
- viability at 96 h, 100 µM ([1]; MCF-12A cells (non-tumorigenic mammary epithelial), 100 μM, 96 h): 61.3%
- viability at 24 h, 2 µM ([1]; MCF-12A cells, 2 μM, 24 h): 98.7%
- viability at 24 h, 5 µM ([1]; MCF-12A cells, 5 μM, 24 h): 99.06 ± 0.01%
- viability at 48 h, 5 µM ([1]; MCF-12A cells, 5 μM, 48 h): 93.73 ± 0.02%
- viability at 24 h, 10 µM ([1]; MCF-12A cells, 10 μM, 24 h): 97.22 ± 0.01%
- viability at 48 h, 10 µM ([1]; MCF-12A cells, 10 μM, 48 h): 88.48 ± 0.02%
- viability at 24 h, 20 µM ([1]; MCF-12A cells, 20 μM, 24 h): 93.6%
- viability at 48 h, 20 µM ([1]; MCF-12A cells, 20 μM, 48 h): 81.96 ± 0.01%
- viability at 24 h, 50 µM ([1]; MCF-12A cells, 50 μM, 24 h): 90.25 ± 0.01%
- viability at 48 h, 50 µM ([1]; MCF-12A cells, 50 μM, 48 h): 77.81 ± 0.01%
- viability at 24 h, 100 µM ([1]; MCF-12A cells, 100 μM, 24 h): 82%
- viability at 48 h, 100 µM ([1]; MCF-12A cells, 100 μM, 48 h): 67.3%
- inhibition of MCF-7 viability (MCF-7 cells; 20 μM, compared with same concentration of tamoxifen): 30%
- growth of MCF-7 cells (MCF-7 cells; 100 and 50 μM, all time points): completely inhibited the growth
- inhibition at 10 µM (MCF-7 cells; Homo sapiens, MCF7, 10 μM, from growth curves): 25%
- inhibition at 20 µM (MCF-7 cells; Homo sapiens, MCF7, 20 μM, all time points, from growth curves): ~50%
- viability at 2 µM (MCF-7 cells; Homo sapiens, MCF7, 24 h): 91.38 ± 0.01%
- viability at 2 µM (MCF-7 cells; Homo sapiens, MCF7, 48 h): 91.38 ± 0.01%
- viability at 2 µM (MCF-7 cells; Homo sapiens, MCF7, 72 h): 91.38 ± 0.01%
- viability at 2 µM (MCF-7 cells; Homo sapiens, MCF7, 96 h): 90.67 ± 0.01%
- viability at 5 µM (MCF-7 cells; Homo sapiens, MCF7, 24 h): 84.83 ± 0.01%
- viability at 5 µM (MCF-7 cells; Homo sapiens, MCF7, 48 h): 83.01 ± 0.02%
- viability at 5 µM (MCF-7 cells; Homo sapiens, MCF7, 72 h): 83.01 ± 0.02%
- viability at 5 µM (MCF-7 cells; Homo sapiens, MCF7, 96 h): 82.54 ± 0.01%
- viability at 10 µM (MCF-7 cells; Homo sapiens, MCF7, 10 μM, 24 h): 80 ± 0.01%
- viability at 10 µM (MCF-7 cells; Homo sapiens, MCF7, 10 μM, 48 h): 76.59 ± 0.01%
- viability at 10 µM (MCF-7 cells; Homo sapiens, MCF7, 10 μM, 72 h): 76.59 ± 0.01%
- viability at 10 µM (MCF-7 cells; Homo sapiens, MCF7, 10 μM, 96 h): 74.2%
- viability at 20 µM (MCF-7 cells; Homo sapiens, MCF7, 20 μM, 24 h): 70.25 ± 0.02%
- viability at 20 µM (MCF-7 cells; Homo sapiens, MCF7, 20 μM, 48 h): 64.29 ± 0.02%
- viability at 20 µM (MCF-7 cells; Homo sapiens, MCF7, 20 μM, 72 h): 51.2 ± 0.01%
- viability at 20 µM (MCF-7 cells; Homo sapiens, MCF7, 20 μM, 96 h): 40.5%
- viability at 50 µM (MCF-7 cells; Homo sapiens, MCF7, 24 h): 62.7%
- viability at 50 µM (MCF-7 cells; Homo sapiens, MCF7, 48 h): 43.4%
- viability at 50 µM (MCF-7 cells; Homo sapiens, MCF7, 72 h): 28%
- viability at 50 µM (MCF-7 cells; Homo sapiens, MCF7, 96 h): 18.4%
- viability at 100 µM (MCF-7 cells; Homo sapiens, MCF7, 24 h): 57.46 ± 0.02%
- viability at 100 µM (MCF-7 cells; Homo sapiens, MCF7, 48 h): 33.25 ± 0.02%
- viability at 100 µM (MCF-7 cells; Homo sapiens, MCF7, 72 h): 20.25 ± 0.01%
- viability at 100 µM (MCF-7 cells; Homo sapiens, MCF7, 96 h): 13.4%
- IC50 (MCF-7 cells; Homo sapiens, MCF7, 24 h after treatment): 121 µM
- IC50 (MCF-7 cells; Homo sapiens, MCF7, 48 h after treatment): 16.2 µM
- IC50 (MCF-7 cells; Homo sapiens, MCF7, 72 h after treatment): 17 µM
- IC50 (MCF-7 cells; Homo sapiens, MCF7, 96 h after treatment): 16.1 µM

Reference: paper PMC9948168, “Vanillin-Based Indolin-2-one Derivative Bearing a Pyridyl Moiety as a Promising Anti-Breast Cancer Agent via Anti-Estrogenic Activity” (ACS Omega, 2023)
